# Results taken from US20230077362A1 (CORTEVA AGRISCIENCE LLC, priority 2019, published 2023).
# Where two headings read alike, the source gives them in different places.
# Experiments:
# [1] = test system: Cabbage Looper (Trichoplusia ni) ("CL"), second instar larvae; experiment: Bioassay on cabbage looper (CL), 128-well diet tray assay; format: in vivo; conditions: for CL rating: C = not tested, D = no activity noticed
# Procedure, shortened: (§1)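 Covered trays were held at 25° C. under a 14:10 light-dark cycle for five to seven days. Percent mortality was then scored in each well, and activity across eight wells was averaged.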
# [2] = test system: Beet Armyworm (Spodoptera exigua) ("BAW"), second instar larvae; experiment: Bioassay on beet armyworm (BAW), 128-well diet tray assay; format: in vivo; conditions: for pest or weed control at 50 µg/cm2: Spodoptera exigua; for BAW rating: C = not tested, D = no activity noticed
# Procedure, shortened: as §1
# [3] = Trichoplusia ni, read-out: CL (Biological Results, rating)
# [4] = read-out: BAW (Biological Results, rating)
# [5] = Trichoplusia ni, read-out: CL rating
structure (smiles),measurement,setting,value
"COC(C)c1ccc(C)cc1N1C(=O)CS/C1=N\C(=O)Nc1ccc(-c2ncn(-c3ccc(SC(F)(F)F)cc3)n2)cc1F (centres unmarked) [Compound J187, (Z)-1-(2-Fluoro-4-(1-(4-((trifluoromethyl)thio)phenyl)-1H-1,2,4-triazol-3-yl)phenyl)-3-(3-(2-(1-methoxyethyl)-5-methylphenyl)-4-oxothiazolidin-2-ylidene)urea]",pest or weed control at 50 µg/cm2,[1]; [3],50 to 100%
same,pest or weed control at 50 µg/cm2,[2]; [4],50 to 100%
Cc1ccc(COCC(Cl)Cl)c(N2C(=O)CS/C2=N\C(=O)Nc2ccc(-c3ncn(-c4ccc(S(F)(F)(F)(F)F)cc4)n3)cc2F)c1 [Compound J554],CL rating,"[1]; Table ABC, species CL",A (50-100)
same,BAW rating,"[2]; Table ABC, species BAW",A (50-100)
"Cc1ccc(Cc2ccccc2)c(N2C(=O)CS/C2=N\C(=O)Nc2ccc(-c3ncn(-c4ccc(C(F)(F)F)cc4)n3)cc2F)c1 [Compound J562, (Z)-1-(3-(2-Benzyl-5-methylphenyl)-4-oxothiazolidin-2-ylidene)-3-(2-fluoro-4-(1-(4-(trifluoromethyl)phenyl)-1H-1,2,4-triazol-3-yl)phenyl)urea]",pest or weed control at 50 µg/cm2,[1]; [5],50 to 100%
same,pest or weed control at 50 µg/cm2,[2]; read-out: BAW rating,50 to 100%
"Cc1ccc(OCCC(F)(F)F)c(N2C(=O)CS/C2=N\C(=O)Nc2ccc(-c3cn(-c4ccc(C(F)(F)F)cc4)cn3)cc2C)c1 [Compound J527, (Z)-1-(3-(5-Methyl-2-(3,3,3-trifluoropropoxy)phenyl)-4-oxothiazolidin-2-ylidene)-3-(2-methyl-4-(1-(4-(trifluoromethyl)phenyl)-1H-imidazol-4-yl)phenyl)urea]",pest or weed control at 50 µg/cm2,[1]; [5],50 to 100%
same,pest or weed control at 50 µg/cm2,[2]; read-out: BAW rating,50 to 100%
"Cc1ccc(OCC(F)(F)F)c(N2C(=O)CS/C2=N\C(=O)Nc2ccc(-c3ncn(-c4ccc(C(F)(F)F)cc4)n3)cc2F)c1 [Compound J63, (Z)-1-(2-Fluoro-4-(1-(4-(trifluoromethyl)phenyl)-1H-1,2,4-triazol-3-yl)phenyl)-3-(3-(5-methyl-2-(2,2,2-trifluoroethoxy)phenyl)-4-oxothiazolidin-2-ylidene)urea]",pest or weed control at 50 µg/cm2,[1]; [3],50 to 100%
same,pest or weed control at 50 µg/cm2,[2]; [4],50 to 100%
"Cc1ccc(OCCC(F)(F)F)c(N2C(=O)CS/C2=N\C(=O)Nc2ccc(-c3ncn(-c4ccc(OC(F)(F)F)cn4)n3)cc2C#N)c1 [Compound J264, (Z)-1-(2-Cyano-4-(1-(5-(trifluoromethoxy)pyridin-2-yl)-1H-1,2,4-triazol-3-yl)phenyl)-3-(3-(5-methyl-2-(3,3,3-trifluoropropoxy)phenyl)-4-oxothiazolidin-2-ylidene)urea]",pest or weed control at 50 µg/cm2,[1]; [3],50 to 100%
same,pest or weed control at 50 µg/cm2,[2]; [4],50 to 100%
"Cc1ccc(C(C)C)c(N2C(=O)CS/C2=N\C(=O)Nc2ccc(-c3ncn(-c4ccc(OC(F)(F)F)cc4)n3)cc2C#N)c1 [Compound J227, (Z)-1-(2-cyano-4-(1-(4-(trifluoromethoxy)phenyl)-1H-1,2,4-triazol-3-yl)phenyl)-3-(3-(2-isopropyl-5-methylphenyl)-4-oxothiazolidin-2-ylidene)urea]",pest or weed control at 50 µg/cm2,[1]; [3],50 to 100%
same,pest or weed control at 50 µg/cm2,[2]; [4],50 to 100%
Cc1ccc(COCC(F)(F)F)c(N2C(=O)CS/C2=N\C(=O)Nc2ccc(-c3ncn(-c4ccc(OC(F)(F)C(F)(F)F)cc4)n3)cc2C)c1 [Compound J681],CL rating,"[1]; Table ABC, species CL",A (50-100)
same,BAW rating,"[2]; Table ABC, species BAW",A (50-100)
O=C(/N=C1\SCC(=O)N1c1ccccc1COCC(F)(F)F)Nc1ccc(-c2ncn(-c3ccc(C(F)(F)F)cc3)n2)cc1F [Compound J661],CL rating,"[1]; Table ABC, species CL",A (50-100)
same,BAW rating,"[2]; Table ABC, species BAW",A (50-100)
"CCCc1ccc(N(C)C)cc1N1C(=O)CS/C1=N\C(=O)Nc1ccc(-c2ncn(-c3ccc(S(=O)(=O)C(F)(F)F)cc3)n2)cc1C [Compound J374, (Z)-1-(3-(5-(Dimethylamino)-2-propylphenyl)-4-oxothiazolidin-2-ylidene)-3-(2-methyl-4-(1-(4-((trifluoromethyl)sulfonyl)phenyl)-1H-1,2,4-triazol-3-yl)phenyl)urea]",pest or weed control at 50 µg/cm2,[1]; [5],50 to 100%
same,pest or weed control at 50 µg/cm2,[2]; read-out: BAW rating,50 to 100%
"Cc1ccc(OCCCC(F)(F)F)c(N2C(=O)CS/C2=N\C(=O)Nc2ccc(-n3cnc(-c4ccc(OC(F)(F)F)cc4)n3)cc2C)c1 [Compound J465, (Z)-1-(3-(5-Methyl-2-(4,4,4-trifluorobutoxy)phenyl)-4-oxothiazolidin-2-ylidene)-3-(2-methyl-4-(3-(4-(trifluoromethoxy)phenyl)-1H-1,2,4-triazol-1-yl)phenyl)urea]",pest or weed control at 50 µg/cm2,[1]; [5],50 to 100%
same,pest or weed control at 50 µg/cm2,[2]; read-out: BAW rating,50 to 100%
"CCOCc1ccc(C)cc1N1C(=O)CS/C1=N\C(=O)Nc1ccc(-c2ncn(-c3ccc(C(F)(F)F)cn3)n2)cc1F [Compound J299, (Z)-1-(3-(2-(Ethoxymethyl)-5-methylphenyl)-4-oxothiazolidin-2-ylidene)-3-(2-fluoro-4-(1-(5-(trifluoromethyl)pyridin-2-yl)-1H-1,2,4-triazol-3-yl)phenyl)urea]",pest or weed control at 50 µg/cm2,[1]; [3],50 to 100%
same,pest or weed control at 50 µg/cm2,[2]; [4],50 to 100%
"CN(C)c1ccc(C(F)(F)F)c(N2C(=O)CS/C2=N\C(=O)Nc2ccc(-c3nnc(-c4ccc(OC(F)(F)F)cc4)o3)cc2F)c1 [Compound J611, (Z)-1-(3-(5-(Dimethylamino)-2-(trifluoromethyl)phenyl)-4-oxothiazolidin-2-ylidene)-3-(2-fluoro-4-(5-(4-(trifluoromethoxy)phenyl)-1,3,4-oxadiazol-2-yl)phenyl)urea]",pest or weed control at 50 µg/cm2,[1]; [5],50 to 100%
same,pest or weed control at 50 µg/cm2,[2]; read-out: BAW rating,50 to 100%
"CCCc1ccc(C)cc1N1C(=O)CS/C1=N\C(=O)Nc1ccc(-c2ncn(-c3ccc(C(F)(F)F)cn3)n2)cc1C [Compound J293, (Z)-1-(3-(5-Methyl-2-propylphenyl)-4-oxothiazolidin-2-ylidene)-3-(2-methyl-4-(1-(5-(trifluoromethyl)pyridin-2-yl)-1H-1,2,4-triazol-3-yl)phenyl)urea]",pest or weed control at 50 µg/cm2,[1]; [3],50 to 100%
same,pest or weed control at 50 µg/cm2,[2]; [4],50 to 100%
"Cc1cc(-c2cn(-c3ccc(S(F)(F)(F)(F)F)cc3)cn2)ccc1NC(=O)/N=C1\SCC(=O)N1c1cc(N(C)C)c(F)cc1C(C)C [Compound J619, (Z)-1-(3-(5-(Dimethylamino)-4-fluoro-2-isopropylphenyl)-4-oxothiazolidin-2-ylidene)-3-(2-methyl-4-(1-(4-(pentafluoro-λ^6-sulfaneyl)phenyl)-1H-imidazol-4-yl)phenyl)urea]",pest or weed control at 50 µg/cm2,[1]; [5],50 to 100%
same,pest or weed control at 50 µg/cm2,[2]; read-out: BAW rating,50 to 100%
"Cc1ccc(OCCC(F)(F)F)c(N2C(=O)CS/C2=N\C(=O)Nc2ccc(-n3cnc(-c4ccc(OC(F)(F)F)cc4)c3)cc2Cl)c1 [Compound J790, (Z)-1-(2-Chloro-4-(4-(4-(trifluoromethoxy)phenyl)-1H-imidazol-1-yl)phenyl)-3-(3-(5-methyl-2-(3,3,3-trifluoropropoxy)phenyl)-4-oxothiazolidin-2-ylidene)urea]",mortality at 50 µg/cm2,"[1]; Trichoplusia ni, Table ABC, species CL, 128-well diet tray assay, second instar larvae, read-out: CL rating (% control or mortality class)",50 to 100%
same,BAW rating (% control or mortality class),"[2]; Table ABC, species BAW, 128-well diet tray assay, second instar larvae",A (50-100)
"Cc1ccc(COCC(F)(F)F)c(N2C(=O)CS/C2=N\C(=O)Nc2ccc(-c3nnn(-c4ccc(OC(F)(F)F)cc4)n3)cc2)c1 [Compound J767, (Z)-1-(3-(5-Methyl-2-((2,2,2-trifluoroethoxy)methyl)phenyl)-4-oxothiazolidin-2-ylidene)-3-(4-(2-(4-(trifluoromethoxy)phenyl)-2H-tetrazol-5-yl)phenyl)urea]",pest or weed control at 50 µg/cm2,[1]; [5],50 to 100%
same,pest or weed control at 50 µg/cm2,[2]; read-out: BAW rating,50 to 100%
"Cc1cc(-c2ncn(-c3ccc(S(=O)(=O)C(F)(F)F)cc3)n2)ccc1NC(=O)/N=C1\SCC(=O)N1c1cc(N(C)C)c(F)cc1C(C)C [Compound J375, (Z)-1-(3-(5-(Dimethylamino)-4-fluoro-2-isopropylphenyl)-4-oxothiazolidin-2-ylidene)-3-(2-methyl-4-(1-(4-((trifluoromethyl)sulfonyl)phenyl)-1H-1,2,4-triazol-3-yl)phenyl)urea]",pest or weed control at 50 µg/cm2,[1]; [5],50 to 100%
same,pest or weed control at 50 µg/cm2,[2]; read-out: BAW rating,50 to 100%
"CC(C)c1ccc(N(C)C)cc1N1C(=O)CS/C1=N\C(=O)Nc1ccc(-c2cn(-c3ccc(S(F)(F)(F)(F)F)cc3)cn2)cc1F [Compound J603, (Z)-1-(3-(5-(Dimethylamino)-2-isopropylphenyl)-4-oxothiazolidin-2-ylidene)-3-(2-fluoro-4-(1-(4-(pentafluoro-λ^6-sulfaneyl)phenyl)-1H-imidazol-4-yl)phenyl)urea]",pest or weed control at 50 µg/cm2,[1]; [5],50 to 100%
same,pest or weed control at 50 µg/cm2,[2]; read-out: BAW rating,50 to 100%
"Cc1ccc(COCC(F)(F)F)c(N2C(=O)CS/C2=N\C(=O)Nc2ccc(-c3nnc(-c4ccc(OC(F)(F)F)cc4)o3)cc2F)c1 [Compound J430, (Z)-1-(2-Fluoro-4-(5-(4-(trifluoromethoxy)phenyl)-1,3,4-oxadiazol-2-yl)phenyl)-3-(3-(5-methyl-2-((2,2,2-trifluoroethoxy)methyl)phenyl)-4-oxothiazolidin-2-ylidene)urea]",pest or weed control at 50 µg/cm2,[1]; [5],50 to 100%
same,pest or weed control at 50 µg/cm2,[2]; read-out: BAW rating,50 to 100%
"CC(C)c1ccc(C#N)cc1N1C(=O)CS/C1=N\C(=O)Nc1ccc(-c2ncn(-c3ccc(S(=O)(=O)C(F)(F)F)cc3)n2)cc1C#N [Compound J413, (Z)-1-(3-(5-Cyano-2-isopropylphenyl)-4-oxothiazolidin-2-ylidene)-3-(2-cyano-4-(1-(4-((trifluoromethyl)sulfonyl)phenyl)-1H-1,2,4-triazol-3-yl)phenyl)urea]",pest or weed control at 50 µg/cm2,[1]; [5],50 to 100%
same,pest or weed control at 50 µg/cm2,[2]; read-out: BAW rating,50 to 100%
"N#Cc1ccc(OCCC(F)(F)F)c(N2C(=O)CS/C2=N\C(=O)Nc2ccc(-n3cnc(-c4ccc(OC(F)(F)F)cc4)n3)cc2)c1 [Compound J406, (Z)-1-(3-(5-Cyano-2-(3,3,3-trifluoropropoxy)phenyl)-4-oxothiazolidin-2-ylidene)-3-(4-(3-(4-(trifluoromethoxy)phenyl)-1H-1,2,4-triazol-1-yl)phenyl)urea]",pest or weed control at 50 µg/cm2,[1]; [5],50 to 100%
same,pest or weed control at 50 µg/cm2,[2]; read-out: BAW rating,50 to 100%
